Experiment: Safety investigation of Compound 23, 30 days in mice
Format: in vivo, C57BL/6 mice
Conditions: for body weight: in % (unit assumed)

CN(C)C[C@@H]1C(=O)O[C@H]2[C@H]1CC[C@@]1(C)C[C@]13CC[C@@](C)(O)[C@H]23 [Compound 23]
activities of the mice after each administration (500 and 1000 mg/kg): relatively reduced | time to return to normal after administration (500 and 1000 mg/kg): 1 to 2 h | mortality (500 and 1000 mg/kg, 30 days): none of the mice die | effect on body weights (500 and 1000 mg/kg, female and male mice): no obvious effect on the body weights | body weight (female, 500 mg/kg i.g. daily, Day 1): 100.00 ± 0.00 | body weight (female, 500 mg/kg i.g. daily, Day 5): 100.41 ± 0.43 | body weight (female, 500 mg/kg i.g. daily, Day 10): 99.01 ± 1.34 | body weight (female, 500 mg/kg i.g. daily, Day 15): 100.03 ± 0.95 | body weight (female, 500 mg/kg i.g. daily, Day 20): 100.52 ± 0.74 | body weight (female, 500 mg/kg i.g. daily, Day 25): 99.81 ± 1.72 | body weight (female, 500 mg/kg i.g. daily, Day 30): 99.79 ± 2.55 | body weight (female, 1000 mg/kg i.g. daily, Day 1): 100.00 ± 0.00 | body weight (female, 1000 mg/kg i.g. daily, Day 5): 101.96 ± 0.55 | body weight (female, 1000 mg/kg i.g. daily, Day 10): 101.80 ± 2.02 | body weight (female, 1000 mg/kg i.g. daily, Day 15): 99.77 ± 2.60 | body weight (female, 1000 mg/kg i.g. daily, Day 20): 101.04 ± 2.13 | body weight (female, 1000 mg/kg i.g. daily, Day 25): 99.06 ± 3.56 | body weight (female, 1000 mg/kg i.g. daily, Day 30): 100.67 ± 0.91 | body weight (male, 500 mg/kg i.g. daily, Day 1): 100.00 ± 0.00 | body weight (male, 500 mg/kg i.g. daily, Day 5): 100.31 ± 0.89 | body weight (male, 500 mg/kg i.g. daily, Day 10): 101.51 ± 4.00 | body weight (male, 500 mg/kg i.g. daily, Day 15): 99.27 ± 2.11 | body weight (male, 500 mg/kg i.g. daily, Day 20): 101.29 ± 0.40 | body weight (male, 500 mg/kg i.g. daily, Day 25): 98.93 ± 0.60 | body weight (male, 500 mg/kg i.g. daily, Day 30): 100.10 ± 1.08 | body weight (male, 1000 mg/kg i.g. daily, Day 1): 100.00 ± 0.00 | body weight (male, 1000 mg/kg i.g. daily, Day 5): 101.48 ± 1.30 | body weight (male, 1000 mg/kg i.g. daily, Day 10): 101.22 ± 0.84 | body weight (male, 1000 mg/kg i.g. daily, Day 15): 100.47 ± 1.28 | body weight (male, 1000 mg/kg i.g. daily, Day 20): 100.15 ± 2.76 | body weight (male, 1000 mg/kg i.g. daily, Day 25): 98.35 ± 1.14 | body weight (male, 1000 mg/kg i.g. daily, Day 30): 100.71 ± 0.53
